Earlier results, collected in patent US20090223408A1, “Use of Sub-Micron Copper Salt Particles in Wood Preservation” (PhibroWood, LLC, priority 2004, published 2009).
Where two headings read alike, the source gives them in different places.

Tests used:
[1] = baseline about 4 mg copper per liter

Row | Solubility of copper (pH 4) [ppm] | Solubility of copper (pH 7) [ppm] | Solubility of copper (pH 10) | Compound | leachate copper concentration relative to CCA baseline [1]
1 | 640 | 2 | about 0.01 ppm | [OH][Cu][OH] [copper hydroxide, copper(II) hydroxide] | –
2 | – | – | – | copper citrate | over fifteen times the baseline concentration
